Results taken from ChEMBL document CHEMBL5131534, “Identification of 2-Pyridinylindole-Based Dual Antagonists of Toll-like Receptors 7 and 8 (TLR7/8)” (ACS Med Chem Lett, 2022).

Legend:
Toll-like receptor 3 = target: T1, Toll-like receptor 3 (Homo sapiens, UniProt O15455); experiment: Antagonist activity at […] stimulated human TRL3 overexpressed in HEK293 cells assessed as inhibition of NF kappa B/Ap-1 activation preincubated with compound for 30 mins followed by […] stimulation measured after 22 hrs by SEAP reporter assay; format: cell-based
T1 sequence (O15455 whole entry): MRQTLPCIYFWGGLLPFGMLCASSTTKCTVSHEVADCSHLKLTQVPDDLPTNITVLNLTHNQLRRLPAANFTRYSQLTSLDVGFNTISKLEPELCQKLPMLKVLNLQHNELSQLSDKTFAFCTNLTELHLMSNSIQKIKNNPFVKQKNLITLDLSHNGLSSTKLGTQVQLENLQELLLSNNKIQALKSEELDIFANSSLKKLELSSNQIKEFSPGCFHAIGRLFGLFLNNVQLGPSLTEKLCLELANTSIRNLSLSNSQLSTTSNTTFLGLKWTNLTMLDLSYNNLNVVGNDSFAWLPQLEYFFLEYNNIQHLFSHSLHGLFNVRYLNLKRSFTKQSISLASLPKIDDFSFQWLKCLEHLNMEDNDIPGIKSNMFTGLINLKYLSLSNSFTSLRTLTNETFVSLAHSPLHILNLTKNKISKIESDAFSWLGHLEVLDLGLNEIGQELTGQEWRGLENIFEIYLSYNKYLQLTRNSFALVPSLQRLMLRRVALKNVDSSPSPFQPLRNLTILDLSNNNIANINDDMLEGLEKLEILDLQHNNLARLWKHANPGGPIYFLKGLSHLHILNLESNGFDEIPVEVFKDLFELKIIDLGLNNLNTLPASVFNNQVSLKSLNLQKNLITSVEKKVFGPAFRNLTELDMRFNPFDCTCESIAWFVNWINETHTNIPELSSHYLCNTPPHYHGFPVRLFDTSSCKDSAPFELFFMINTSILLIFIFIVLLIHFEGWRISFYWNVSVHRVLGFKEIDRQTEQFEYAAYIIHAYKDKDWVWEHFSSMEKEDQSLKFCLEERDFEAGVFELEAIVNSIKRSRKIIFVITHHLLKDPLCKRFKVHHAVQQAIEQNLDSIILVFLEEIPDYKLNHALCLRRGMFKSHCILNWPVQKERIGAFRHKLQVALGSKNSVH

[1] = In vivo antagonist activity at TRL7 in C57BL/6 mouse assessed as inhibition of gardiquimod stimulated IL-6 production at 0.03 mg/kg,po for 30 minutes and followed by gardiquimod addition measured after 90 mins by ELISA analysis relative to control; format: functional; parameters: scale not given: the % may be the effect or the level left; details: time 120 min, 2 h
Mus musculus [2] = experiment: Anti-inflammatory activity against MRL/Ipr Systemic lupus erythematosus mouse model assessed as inhibition of urinary NGAL at 0.1 mg/kg, po administered for 8 weeks and measured 24 hrs post final dose relative to control; format: functional; parameters: scale not given: the % may be the effect or the level left; details: time 1368 hrs
[3] = In vivo antagonist activity at TRL9 in C57BL/6 mouse assessed as inhibition of ODN1585 stimulated IL-6 production at 3 mg/kg,po for 30 minutes and followed by ODN1585 addition measured after 90 mins by ELISA analysis relative to control; format: functional; parameters: scale not given: the % may be the effect or the level left; details: time 120 min, 2 h
Mus musculus [4] = experiment: Anti-inflammatory activity against MRL/Ipr Systemic lupus erythematosus mouse model assessed as inhibition of anti-dsDNA Ab titer at 1 mg/kg, po administered for 8 weeks and measured 24 hrs post final dose relative to control; format: functional; parameters: scale not given: the % may be the effect or the level left; details: time 1368 hrs
Mus musculus [5] = experiment: Anti-inflammatory activity against MRL/Ipr Systemic lupus erythematosus mouse model assessed as inhibition of anti-Sm/RNP Ab titer at 1 mg/kg, po administered for 8 weeks and measured 24 hrs post final dose relative to control; format: functional; parameters: scale not given: the % may be the effect or the level left; details: time 1368 hrs
[6] = Toxicity in MRL/Ipr Systemic lupus erythematosus mouse model assessed as relative spleen weight at 1 mg/kg, po administered for 8 weeks and measured 24 hrs post final dose relative to control; format: organism-based; details: in vivo, 1368 h
Mus musculus [7] = experiment: Anti-inflammatory activity against MRL/Ipr Systemic lupus erythematosus mouse model assessed as inhibition of proteinuria at 0.1 mg/kg, po administered for 8 weeks and measured 24 hrs post final dose relative to control; format: functional; parameters: scale not given: the % may be the effect or the level left; details: time 1368 hrs
Toll-like receptor 7 = target: T2, Toll-like receptor 7 (Homo sapiens, UniProt Q9NYK1); experiment: Antagonist activity at gardiquimod stimulated TRL7 in human PBMC cells assessed as inhibition of IL-6 production by ELISA analysis; format: cell-based
T2 sequence (Q9NYK1 whole entry): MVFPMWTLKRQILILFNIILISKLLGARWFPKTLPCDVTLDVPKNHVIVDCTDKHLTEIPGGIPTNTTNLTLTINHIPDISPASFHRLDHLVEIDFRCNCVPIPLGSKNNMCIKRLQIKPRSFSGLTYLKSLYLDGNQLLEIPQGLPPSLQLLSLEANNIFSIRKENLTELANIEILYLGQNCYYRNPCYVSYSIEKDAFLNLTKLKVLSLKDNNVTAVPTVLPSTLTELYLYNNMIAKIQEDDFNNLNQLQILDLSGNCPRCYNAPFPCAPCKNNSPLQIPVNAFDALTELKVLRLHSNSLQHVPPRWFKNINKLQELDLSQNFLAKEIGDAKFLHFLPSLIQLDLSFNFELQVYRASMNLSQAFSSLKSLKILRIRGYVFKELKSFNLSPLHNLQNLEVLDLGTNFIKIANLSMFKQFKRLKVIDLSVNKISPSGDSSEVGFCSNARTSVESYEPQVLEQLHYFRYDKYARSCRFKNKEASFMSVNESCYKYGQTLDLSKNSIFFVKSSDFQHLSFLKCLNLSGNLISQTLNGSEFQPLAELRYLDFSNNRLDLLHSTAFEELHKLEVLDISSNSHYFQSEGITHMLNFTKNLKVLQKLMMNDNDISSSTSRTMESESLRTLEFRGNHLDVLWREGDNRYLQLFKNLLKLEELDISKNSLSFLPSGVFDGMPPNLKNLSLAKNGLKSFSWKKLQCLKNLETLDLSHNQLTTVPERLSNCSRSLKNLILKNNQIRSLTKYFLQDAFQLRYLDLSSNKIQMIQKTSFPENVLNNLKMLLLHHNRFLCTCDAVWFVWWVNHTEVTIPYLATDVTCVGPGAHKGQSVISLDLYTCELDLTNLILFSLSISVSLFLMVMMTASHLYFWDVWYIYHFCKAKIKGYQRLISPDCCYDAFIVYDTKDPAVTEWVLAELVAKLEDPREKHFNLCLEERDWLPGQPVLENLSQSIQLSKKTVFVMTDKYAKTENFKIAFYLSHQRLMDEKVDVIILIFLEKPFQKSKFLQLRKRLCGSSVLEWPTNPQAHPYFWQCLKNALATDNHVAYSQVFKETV

[8] = Oral bioavailability in mouse blood at 15 mg/kg; format: ADME, organism-based
[9] = Plasma protein binding in human assessed as free fraction; format: ADME, cell-free
[10] = Half life in mouse blood at 5 mg/kg, iv; format: ADME, organism-based
[11] = In vivo antagonist activity at TRL7 in C57BL/6 mouse assessed as inhibition of gardiquimod stimulated IL-6 production at […],po for 30 minutes and followed by gardiquimod addition measured after 90 mins by ELISA analysis relative to control; format: functional; parameters: scale not given: the % may be the effect or the level left; details: time 120 min, 2 h

Cc1cc(-c2[nH]c3ccc(C4CCNCC4)cc3c2C(C)C)cc(C)n1
IC50 (Toll-like receptor 3): > 10000 nM
Activity [1]: 28%
Activity (Mus musculus [2]): 52%
Activity [3]: 29%
Activity (Mus musculus [4]): 14%
Activity (Mus musculus [5]): 84%
Activity [6]: 48%
Activity (Mus musculus [7]): 69%
IC50 (Toll-like receptor 7): 1 nM
bioavailability [8]: 58%
fraction unbound [9]: 0.09
half-life [10]: 9 h
Activity [11]: 83%
